Test results published in patent US20210220489A1, “AMYGDALAR NEURAL ENSEMBLE THAT ENCODES THE UNPL[…] PAIN” (The Board of Trustees of the Leland Stanford Junior …, priority 2020, published 2021).

Legend:
[1] = system: neuropathic TRAP^hM4 mice; experiment: Neuropathic (spared nerve injury) reflexive and affective-motivational pain behaviors; assay type: in vivo; settings: day 42 postinjury
Description: To induce a chronic pain state, we used a modified version of the Spared Nerve Injury (SNI) model of neuropathic pain, as previously described (70). This model entails surgical section of two of the sciatic nerve branches (common peroneal and tibial branches) while sparing the third (sural branch). […] To perform this peripheral nerve injury procedure, anesthesia was induced and maintained throughout surgery with isoflurane (4% induction, 1.5% maintenance in oxygen). The left hind leg was shaved and wiped clean with alcohol and betadine. We made a 1-cm incision in the skin of the mid-dorsal thigh, approximately where the sciatic nerve trifurcates. […] Mice were then returned to their home cage and closely monitored over the following three days for well-being.
We habituated mice inside individual red plastic cylinders (10.16-cm D) on a raised flat, perforated metal platform (60.96-cm H) for 3 days prior to the start of behavioral sensory testing. After basal thermal and mechanical thresholds were measured, mice underwent a peripheral nerve injury surgery (Spared Nerve Injury, SNI; see “Chronic neuropathic pain model” above for details of the surgical procedure). […]

[2] = system: o-TRAP^hM4 mice; experiment: Pain behaviors evoked by optogenetic activation of nociceptors (o-TRAP^hM4); assay type: in vivo; settings: noxious transdermal light stimuli
Description: Different AAV serotypes display unique infection tropisms. […] To express the light-sensitive cation channel channelrhodopsin2 (ChR2) in putative primary afferent nociceptors, we intrathecally injected AAV6-hSyn-ChR2(H134R)-eYFP immediately following the i.c. BLA injections of AAV-DIO-DREADD(Gi)-mCherry in TRAP mice while remaining anesthetized under isoflurane (1-2% maintenance). Specifically, we shaved a small patch of fur on the back, wiped with alcohol and Betadine, and then inserted a 33G beveled needle connected to a WPI Nanofil syringe between the L5/L6 vertebrae and through the dura (confirmation by presence of reflexive tail flick). We slowly administered the virus was over 20 s. We retuned mice to their home cage for 4-6 weeks before behavioral verification of ChR2 expression. […] As we sought expression in lumbar DRGs for the purposes of our behavioral experiments that involve sensory testing on the hind limbs, we performed a behavioral screening of each mouse for transdermal light-responsivity when light was applied to the hindpaw. We placed mice inside individual red plastic cylinders (10.16-cm D) on a thin glass surface. […] We measured whether an immediate nociceptive hindpaw reflex and/or pain affective-motivational behaviors (described below) occurred in response to the light indicated ChR2 expression in nociceptors. […]

[3] = system: BLA neurons; experiment: Clozapine-N-oxide control experiments with BLA Ca2+ imaging (no hM4 expression); assay type: in vivo, mice; settings: CNO 10 mg/kg
Experimental: To check for possible alterations of neural activity in the presence of CNO alone (i.e., no hM4 expression), we conducted a shortened version of the main protocol (FIGS. 15D-15G). We injected mice with CNO (10 mg/kg), then placed them back in their home cage. After approximately 25 min, we mounted the miniature microscope on the mouse's head and placed them within the test chamber. They habituated for 10 min followed by adlibitum access to 10% sucrose solution delivered in the same manner as previously described. Mice then received a battery of stimuli: light touch (0.07-g von Frey filament), noxious pin (25G needle), or aloud noise (˜85 dB, same as previously described). We collected all subsequent data, processed Ca2+ imaging movies, and performed analysis similar to the main protocol used in FIG. 7.

C[N+]1([O-])CCN(C2=Nc3cc(Cl)ccc3Nc3ccccc32)CC1 [CNO, clozapine-N-oxide]
reflexive hypersensitivity [1]: did not alter | neuropathic affective-motivational behaviors ([1]; regardless of stimulus intensity or modality): profound decrease | attending and escape behaviors [2]: reduces | mean neural response to various stimuli [3]: did not alter
